Converted amounts (≈) assume the structure as drawn.
Legend:
[1] = tested on: Saccharomyces cerevisiae ATCC 9763; test: Fungal growth inhibition, S. cerevisiae ATCC 9763; format: cell-based; conditions: ATCC9763, MIC defined as 50% growth inhibition, 24 h, n = 3–6
Description: (§1) Fungal isolates were purchased from American Type Culture Collection, except for C. glabrata strain Cg003, which was kindly provided by Julius Subik, Comenius University in Bratislava, Slovak Republic. Cg003 is a clinical isolate, characterized to be resistant to fluconazole and itraconazole due to overexpression of the multidrug resistance efflux pumps Cdr1p and Cdr2p. Saccharomyces cerevisiae (ATCC 9763), Candida albicans (ATCC 90028), Candida albicans (SC5314), Candida glabrata (ATCC 90030), Candida glabrata (Cg003) and Candida krusei (ATCC 6258) were grown in Sabouraud broth (40 g/L D-glucose, 10 g/L peptone, pH 5.6) or YPD (10 g/L yeast extract, 20 g/L Bacto-peptone, 20 g/L glucose) medium to mid log phase, aliquoted into 20% (v/v) glycerol and cryopreserved as stocks at -80°C. For each growth assay, cells from these stocks were diluted in sterile water to OD600 = 0.025, which corresponds to a final starting inoculum of 0.5–2.5 x 10^5 CFU/mL. Growth assays were carried out by pipetting 3 μL compound dissolved in DMSO, 100 μL cell suspension and 97 μL 2 x RPMI media (20.8 g/L RPMI-1640 (Sigma-Aldrich catalog number R6504) 330 mM MOPS, 36 g/L glucose) into a microtiter plate and incubating for 24 h at 34°C, followed by OD measurement at 490 nm. The minimum inhibitory concentration (MIC) was defined as 50% growth inhibition of the microorganism as this measurement best represented the antifungal activity of the compounds. Standard errors were typically below 5%.

C. albicans cells = test: Post-antifungal effect determination; format: cell-based, Candida albicans; conditions: 1 h exposure of C. albicans; AMB 0.54 μM, VRC 2.8 μM, 6 and 8 20 μM
Procedure: The post-antifungal effect (PAFE) of antifungal drugs on C. albicans was determined as described by others, with modifications. Briefly, 2 × 10^6 CFU/mL C. albicans cells were incubated in 1 mL RPMI-1640 media for 1 h at 30°C with gentle agitation in the presence of amphotericin B (0.54 μM), voriconazole (2.8 μM) or tetrahydrocarbazole compound (20 μM). Cells were subsequently washed in RPMI media 3 times by centrifugation (3 minutes, 5,000 x g) and finally re-suspended in 1 mL fresh RPMI medium and incubated at 30°C for 24 h. At various time intervals, a 100 μL aliquot was removed, serially diluted (10-fold) in saline (0.9% NaCl), and 30 μL aliquots were spread on YPD agar. The agar plates were incubated at 30°C for 48 h and the number of CFU/mL of culture was determined. C. albicans cells treated with DMSO (1%, v/v) served as a control. The number of CFU/mL obtained at specified time intervals was plotted against time (h) following compound removal. An increase in the CFU/mL of culture signifies growth and multiplication of yeast cells. The duration required for the antifungal drug-treated cells to recover from the inhibitory effect of the drug as indicated by an increase in CFU/mL of culture is defined as the PAFE.

Candida albicans SC5314 = test: Fungal growth inhibition, C. albicans SC5314; format: cell-based; conditions: MIC defined as 50% growth inhibition, 24 h, n = 3–6
Description: as §1

Candida krusei ATCC 6258 = test: Fungal growth inhibition, C. krusei; format: cell-based; conditions: Pichia kudriavzevii, ATCC6258; MIC defined as 50% growth inhibition, 24 h, n = 3–6
Description: as §1

HepG2 cells = test: Hep G2 viability assay (XTT); format: cell-based, human; conditions: HepG2 proliferation, 72 h, XTT
Procedure: In each well of a 96 well tissue culture plate (Greiner, catalog number GR-655180) 10,000 human hepatocyte HepG2 cells (Sigma-Aldrich, catalog number 85011430) were plated in 200 μL growth media (EMEM (Sigma-Aldrich, catalog number M2279), 2 mM L-Glutamine (Biological Industries, catalog number 03-020-1B), 1% non-essential amino acids (Biosera, catalog number XC-E1154/100), 10% fetal bovine serum (Biological Industries, catalog number BI-04-007-1A)), and incubated overnight at 37°C and 5% CO2. The following day, fresh growth media plus 2 μL compound in DMSO was added. The plate was incubated for a further 72 h at 37°C and 5% CO2. The media was replaced with 100 μL freshly prepared 0.5 mg/mL XTT sodium salt solution (Sigma-Aldrich, catalog number X4251) in RPMI-1640 (Sigma-Aldrich, catalog number R7509) with 3.83 μg/mL phenazine methosulfate (Sigma-Aldrich, catalog number P9625) and incubated 2–3 h at 37°C and 5% CO2. The color reaction was measured on a Victor X5 plate reader (Perkin-Elmer) at OD450, and the half maximal effective concentration (EC50) was calculated indicating the potency of tetrahydrocarbazole derivatives to inhibit HepG2 cell growth. Tamoxifen (Sigma-Aldrich, catalog number 85256) was used as a positive control compound while DMSO served as a negative control.

Candida glabrata Cg003 = test: microbe, parasite or virus in culture; format: cell-based; conditions: Nakaseomyces glabratus, CG003, 24 h, read-out: Growth inhibition MIC Candida glabrata Cg003
Procedure: as §1, with “Cg003 is a clinical isolate, characterized to be resistant to fluconazole and itraconazole due to overexpression of the multidrug resistance efflux pumps Cdr1p and Cdr2p.” left out, “nm.” for “nm. The minimum inhibitory concentration (MIC) was defined as 50% growth inhibition of the microorganism as this measurement best represented the antifungal activity of the compounds. Standard errors were typically below 5%.”

[2] = tested on: Candida glabrata ATCC 90030; test: Fungal growth inhibition, C. glabrata ATCC 90030; format: cell-based; conditions: Nakaseomyces glabratus, ATCC90030; MIC defined as 50% growth inhibition, 24 h, n = 3–6
Description: as §1

[3] = tested on: C. albicans (SC5314) cells; test: Time-kill assay; format: cell-based, Candida albicans; conditions: AMB 0.54 μM, VRC 2.8 μM, 6 and 8 20 μM
Procedure: C. albicans (SC5314) cells (1 x 10^5 CFU/mL) were incubated in 10 mL RPMI-1640 media at 30°C with gentle agitation (150 rpm) in the presence of amphotericin B (0.5 μM), voriconazole (2.8 μM) or tetrahydrocarbazole compound (20 μM). At the indicated time points (0, 3, 6, and 24 h), a 100 μL aliquot was removed, serially diluted (10 fold) in saline (0.9% NaCl), and 30 μL aliquots were spread on YPD agar. CFU were counted after incubation at 30°C for 48 h. C. albicans cells treated with DMSO (1%, v/v) served as a control. 50 CFU/mL was selected as the lower limit of quantitation.

Na^+,K^+-ATPase = tested on: Na^+,K^+-ATPase; parameters: method as in PMID 19289472; conditions: cited from earlier work
Candida albicans = test: Fungal growth inhibition, C. albicans (library hits, Tables A and B); format: cell-based; conditions: ATCC90028, read-out: Growth inhibition MIC Candida albicans
Procedure: (§2) The compound libraries were purchased from Enamine Ltd, Ukraine and Chembridge Corp, USA. Library screening was performed in 96 well plates format and each compound was screened in the ATP hydrolysis assay at a final concentration of 20 μM. DMSO was used to determine the maximal ATPase activity and a blank with ATP in absence of Pma1 protein was used to determine the level of spontaneous ATP hydrolysis and used to determine background level. The percentage of compound inhibition was evaluated by subtracting the blank from each data point and normalizing to maximal ATP hydrolysis activity.
as §1, with “Cg003 is a clinical isolate, characterized to be resistant to fluconazole and itraconazole due to overexpression of the multidrug resistance efflux pumps Cdr1p and Cdr2p.” left out, “nm.” for “nm. The minimum inhibitory concentration (MIC) was defined as 50% growth inhibition of the microorganism as this measurement best represented the antifungal activity of the compounds. Standard errors were typically below 5%.”

Saccharomyces cerevisiae = test: Fungal growth inhibition, S. cerevisiae (library hits, Table A); format: cell-based; conditions: MIC defined as 50% growth inhibition, n = 3, baker's yeast
Procedure: as §2
as §1, with “Cg003 is a clinical isolate, characterized to be resistant to fluconazole and itraconazole due to overexpression of the multidrug resistance efflux pumps Cdr1p and Cdr2p.” left out, “nm.” for “nm. The minimum inhibitory concentration (MIC) was defined as 50% growth inhibition of the microorganism as this measurement best represented the antifungal activity of the compounds. Standard errors were typically below 5%.”

[4] = molecular target: T1, Saccharomyces cerevisiae Pma1 (Saccharomyces cerevisiae, UniProt P05030); test: ATP hydrolysis inhibition, S. cerevisiae Pma1; format: biochemical; conditions: ATP hydrolysis IC50 Saccharomyces cerevisiae Pma1, library hit compounds, n = 3
T1 construct: containing the full-length cDNA of the S. cerevisiae plasma membrane H^+-ATPase isoform PMA1; made in house; host or cells: Saccharomyces cerevisiae RS72
T1 sequence (P05030 whole entry, canonical isoform): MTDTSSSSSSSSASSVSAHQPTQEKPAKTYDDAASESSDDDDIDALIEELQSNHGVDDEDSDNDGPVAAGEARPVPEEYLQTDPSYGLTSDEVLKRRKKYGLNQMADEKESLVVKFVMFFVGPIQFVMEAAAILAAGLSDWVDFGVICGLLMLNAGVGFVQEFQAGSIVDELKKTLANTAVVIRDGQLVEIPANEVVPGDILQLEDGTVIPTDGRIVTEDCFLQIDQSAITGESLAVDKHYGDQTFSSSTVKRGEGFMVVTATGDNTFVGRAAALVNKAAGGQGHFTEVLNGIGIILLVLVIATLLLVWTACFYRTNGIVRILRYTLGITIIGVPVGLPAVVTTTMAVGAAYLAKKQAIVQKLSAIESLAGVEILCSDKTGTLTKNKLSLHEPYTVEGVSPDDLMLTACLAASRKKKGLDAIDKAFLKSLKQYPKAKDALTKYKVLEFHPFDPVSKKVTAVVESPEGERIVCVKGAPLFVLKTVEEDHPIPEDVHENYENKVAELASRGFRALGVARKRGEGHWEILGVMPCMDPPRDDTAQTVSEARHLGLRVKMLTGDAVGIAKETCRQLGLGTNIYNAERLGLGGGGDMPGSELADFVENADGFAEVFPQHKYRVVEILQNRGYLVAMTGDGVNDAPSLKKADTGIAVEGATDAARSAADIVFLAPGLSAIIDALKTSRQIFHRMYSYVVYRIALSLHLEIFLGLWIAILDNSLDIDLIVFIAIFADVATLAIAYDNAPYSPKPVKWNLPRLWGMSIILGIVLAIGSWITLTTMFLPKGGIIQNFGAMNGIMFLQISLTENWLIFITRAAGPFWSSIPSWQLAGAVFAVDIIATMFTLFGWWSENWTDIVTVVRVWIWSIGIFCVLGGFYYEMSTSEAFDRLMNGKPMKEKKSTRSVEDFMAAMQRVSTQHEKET
Procedure: as §2, with “activity. […] Pma1 inhibitory hit compounds (IC50 <20 μM) with antifungal activity on both S. cerevisiae and C. albicans (MIC <100 μM) were re-purchased and re-evaluated to confirm the potency and identity of the compound.” for “activity.”
Plasma membranes containing Pma1 were isolated from Saccharomyces cerevisiae RS72 cells containing the full-length cDNA of the S. cerevisiae plasma membrane H^+-ATPase isoform PMA1 under control of the PMA1 promoter as described.
ATPase activity was determined by measuring the amount of liberated phosphate from ATP hydrolysis. The ATPase assay was performed in 96 well plates in a final reaction volume of 60 μL. 0.1–0.2 μg/well of DOC extracted SERCA membrane or the Na^+,K^+-ATPase was used, while 1–2.5 μg/well was used of the Pma1 membrane preparation. Reactions, including protein membrane preparation and various concentrations of exogenously added compounds, were conducted in the following buffers; Pma1 buffer: 17.5 mM MOPS-NaOH pH 7, 7 mM MgSO4, 44 mM KNO3 (vacuolar ATPase inhibitor), 22 mM NaN3 (mitochondrial ATPase inhibitor), 0.22 mM Na2MoO4 (acid phosphatase inhibitor); SERCA buffer: 9 mM MOPS-NaOH pH 7, 2.7 mM MgCl2, 0.1 mM CaCl2 and 72 mM KCl. Na^+,K^+-ATPase buffer: 30 mM MOPS-NaOH pH 7, 40 mM NaCl, 4 mM MgCl2 and 20 mM KCl. Reactions were initiated by the addition of Na-ATP to a final concentration of 2.5 mM (Pma1 and Na^+,K^+-ATPase) or 5 mM (SERCA), followed by 30 minutes incubation at 30°C. […] Absorption was measured at 860 nm after additional 30 minutes incubation at RT.

[5] = tested on: HEK293 cells expressing the familial Alzheimer’s disease (FAD)-linked presenilin 1 mutation; parameters: method as in PMID 25514752; conditions: HEK293 cells expressing FAD-linked presenilin 1 mutation; cited from earlier work

Row | SMILES | MIC [1] | MIC (Candida albicans SC5314) | MIC (Candida krusei ATCC 6258) | MIC (Candida glabrata Cg003) | MIC [2] | MIC (Candida albicans) | MIC (Saccharomyces cerevisiae) | IC50 [4] | further results
1 | C[C@@H]1[C@H](O)[C@@H](C)/C=C/C=C/C=C/C=C/C=C/C=C/C=C/[C@H](O[C@@H]2O[C@H](C)[C@@H](O)[C@H](N)[C@@H]2O)C[C@@H]2O[C@](O)(C[C@@H](O)C[C@@H](O)[C@H](O)CC[C@@H](O)C[C@@H](O)CC(=O)O[C@H]1C)C[C@H](O)[C@H]2C(=O)O [AMB, amphotericin B, reference compound] | 0.02 ± 0.01 µM (≈ 0.0185 µg/mL) | 0.1 ± 0.04 µM (≈ 0.0924 µg/mL) | 0.44 ± 0.34 µM (≈ 0.407 µg/mL) | 0.18 ± 0.08 µM (≈ 0.166 µg/mL) | 0.1 ± 0.04 µM (≈ 0.0924 µg/mL) |  |  |  | Post-antifungal effect (PAFE) (C. albicans cells): 7 h; EC50 (HepG2 cells): 0.69 ± 0.01 µM; EC50 (HepG2 cells; Homo sapiens, HepG2, 72 h): < 1 µM; Fungicidal or fungistatic activity in time-kill (in words) [3]: fungicidal after 3 h exposure
2 | CC(=O)C1=C(O)[C@@H]2[C@H]3c4c[nH]c5cccc(c45)C[C@H]3C(C)(C)N2C1=O [CPA, cyclopiazonic acid] |  |  |  |  |  |  |  |  | Activity against Na^+,K^+-ATPase (in words) (Na^+,K^+-ATPase): inactivity
3 | Brc1ccc2[nH]c3c(c2c1)CCCC3NCCc1ccccc1 (centres unmarked) [Compound 1] |  |  |  |  |  | 20 µM (≈ 7.39 µg/mL) | 10 µM (≈ 3.69 µg/mL) | 18.2 ± 4.7 µM | Effect on enhanced calcium release from the endoplasmic reticulum (in words) [5]: reduce the enhanced calcium release
4 | Brc1ccc2[nH]c3c(c2c1)CCCC3NCc1ccccc1 (centres unmarked) [Compound 2] |  |  |  |  |  | 10 µM (≈ 3.55 µg/mL) | 12 µM (≈ 4.26 µg/mL) | 12.9 ± 3.2 µM | Effect on enhanced calcium release from the endoplasmic reticulum (in words) [5]: reduce the enhanced calcium release
5 | Cc1ccc2[nH]c3c(c2c1)CCCC3NCc1ccc(Cl)cc1 (centres unmarked) [Compound 3] |  |  |  |  |  | 5 µM (≈ 1.62 µg/mL) | 12 µM (≈ 3.9 µg/mL) | 14.8 ± 3.5 µM | 
6 | OC(Cn1cncn1)(Cn1cncn1)c1ccc(F)cc1F [FLC, fluconazole, reference compound] | 20.7 ± 8.68 µM (≈ 6.33 µg/mL) | 0.75 ± 0.48 µM (≈ 0.23 µg/mL) | 67.2 ± 27 µM (≈ 20.6 µg/mL) | > 208 µM | 26.1 µM (≈ 8 µg/mL) |  |  |  | EC50 (HepG2 cells; Homo sapiens): > 50 µM
7 | C[C@@H](c1ncncc1F)[C@](O)(Cn1cncn1)c1ccc(F)cc1F [VRC, voriconazole, reference compound] | 0.27 ± 0.19 µM (≈ 0.0943 µg/mL) | 0.03 ± 0.02 µM (≈ 0.0105 µg/mL) | 1.02 ± 0.7 µM (≈ 0.356 µg/mL) | 6.11 ± 2.64 µM (≈ 2.13 µg/mL) | 0.61 ± 0.28 µM (≈ 0.213 µg/mL) |  |  |  | Post-antifungal effect (PAFE) (C. albicans cells): no significant delay in growth; EC50 (HepG2 cells; Homo sapiens): > 50 µM; Fungicidal or fungistatic activity in time-kill (in words) [3]: fungistatic activity after both 3 and 24 h of incubation

From PMC5749684, “Tetrahydrocarbazoles are a novel class of potent P-type ATPase inhibitors with antifungal activity” (PLoS ONE, 2018)
